Data reported in PMC6941404, “Pigmentosins from Gibellula sp. as antibiofilm agents and a new glycosylated asperfuran from Cordyceps javanica” (Beilstein Journal of Organic Chemistry, 2019).
Values after ≈ are worked out from the molar mass of the structure shown. Like-named read-outs stand apart in the source and are kept apart here.

Columns and labels:
[1] = Cytotoxicity assay (MTT); format: cell-based
Experimental: (§1) To evaluate the biological effects of compounds 1–6, various assays were carried out. The antimicrobial activity of the isolated compounds against Bacillus subtilis DSM10, Escherichia coli DSM498, Candida tenuis MUCL29892, and Mucor plumbeus MUCL49355 was determined as described by Kuephadungphan and co-workers. The nematicidal activity against Caenorhabditis elegans was investigated using a microtiter plate assay according to Helaly and co-workers, while the cytotoxicity was tested against murine fibroblast (L929) and human HeLa (KB3.1) cell lines according to Chepkirui and co-workers.
(§2) Biological activity screening of compounds 1–6 […]
The isolated compounds were tested for cytotoxic activity using the MTT (3 -(4,5-dimethylthiayol -2-yl)-2,5-diphenyltetrayolium bromide) method in 96 -well microtiter plates following the procedure previously described by Chepkirui et al.7 against th e cervix carcino ma cell line KB3.1 and the established mouse fibroblast cell line L929. The assay was kindly conducted by Wera Collisi, Department of Microbial Drugs, Helmholtz Centre of Infection Research, Germany. The tested cell lines were cultured in EBM -2 (Lonza) sup plemented with 10% fetal bovine serum (Gibco) under 10% CO2 at 37 °C. A 60 µL of serial dilutions from an initial stock (1 mg/mL) of the test compounds in MeOH was added to 120 µL aliquots of a cell suspension (50,000 cells/mL) in 96-well microplates.
After incubation for five days, 20 µL of MTT in phosphate buffered saline (PBS) were added to give a final concentration of 0.5 mg/mL. The plates were further incubated for two hours. The precipitate […]
of formazan crystals was centrifuged and the supernatant was then discarded. Each well was washed with 100 µL of PBS and 100 µL of isopropanol containing 0.4% hydrochloric acid were subsequently added in order to get the residual dissolved. The plates were gently shaken for 20 min before the absorbance at 590 nm was measured using an ELISA microplate reader (Victor). The concentration, at which the growth of cells was inhibited to 50% of the control (IC50), was obtained from the dose - response curves. Methanol was used as negative control while epothilone A and B wer e used as positive controls for L929 and KB3.1 cell lines, respectively. […]
(§3) After incubation at 37 °C under shaking condition, the overnight cultures were adjusted to equal the turbidity of 0.5 McFarland standard using the assay medium. The assay was carried out in 96 -well tissue cultured -treated microplates (TPP®, Germany) for S. aureus and non-treated plates (Falcon®MicroTestTM, USA) for P. aeruginosa , in which 10 μ L of each compound (0.5 mg/m L) in six replicates were mixed together with 140 μ L of bacterial suspension. Methanol and CASO medium with and without 4% glucose were used as negative controls and tetracycline (100 μg/m L) as positive control. Plates were covered with a sterile adhesive porous paper (Kisker Biotech GmbH, Steinfurt, Germany) and incubated at 37 °C for 24 h.
After incubation, ba cterial biofilms were stained with 0.1% crystal violet solution (Sigma -Aldrich) following the protocol of O’Toole .9 Then, the biofilm was subsequently quantified using a microplate reader at 550 nm. […]
aeruginosa PA14 were further evaluated for their bacteriostatic and bactericidal activit ies. The assay was performed in the Bioscreen 100 -well Honeycomb plate according to the protocol described by Yuyama et al. 13 where the MIC values were determined. […]

[2] = tested on: Staphylococcus aureus DSM1104; test: Anti-biofilm activity, microtiter dish biofilm formation assay; format: cell-based; conditions: S. aureus DSM1104 (ATCC25923); lowest concentration preventing biofilm formation by at least 50%; 24 h; NA = No activity
Experimental: (§4) The isolated compounds were also tested for their ability to interfere in the biofilm formation of Staphylococcus aureus DSM1104 and Pseudomonas aeruginosa PA14 [51]. The biofilm inhibition assay was performed in 96-well microtiter plates using the microtiter dish biofilm formation assay described by O’Toole, with minor modifications, as outlined in our recent publications. The antibiofilm activity is expressed as MIC values, which is defined as the lowest concentration of substance that prevents biofilm formation of a target microorganism by at least 50%. […]
(§5) Anti-biofilm activity assay
as §3, with “The determination of the ability of isolated compounds to prevent biofilm formation of S. aureus DSM1104 (ATCC25923) and P. aeruginosa PA148 was performed using the microtiter dish biofilm formation assay described by O’Toole9 with minor modification provided in our recent publications 1, 6, 10–14. The biofilm forming strains were enriched overnight in CASO medium with and without 4% glucose for S. aureus and P. aeruginosa , respectively. After” for “After”
(§6) After incubation, ba cterial biofilms were stained with 0.1% crystal violet solution (Sigma -Aldrich) following the protocol of O’Toole .9 Then, the biofilm was subsequently quantified using a microplate reader at 550 nm. 12 In the current study, the antibiofilm activity was expr essed as MIC value which was defined as the lowest concentration of substance that prevents the biofilm formation of a target microorganism by at least 50%. […]

[3] = tested on: Bacillus subtilis DSM10; test: Antimicrobial activity, broth microdilution MIC; format: cell-based; conditions: Bacillus subtilis DSM10, 24 h, range 2.34–300 μg/mL, NA = No activity
Experimental: as §1
(§7) Biological activity screening of compounds 1–6
(§8) Antimicrobial activity assay
(§9) The minimum inhibitory concentration (MIC) of compounds 1–6 was determined using the broth microdilution method according to Kuephadungphan et al.4 against B. subtilis DSM10, E. coli DSM498, C. tenuis MUCL29892 and M. plumbeus MUCL49355. Stock suspension of each bacterium and yeast (100 μL) was transferred to 100 mL of EBS medium and YM medium, respectively.
(§10) Suspensions of B. subtilis and C. tenuis were incubated on a rotary shaker at 30 °C for 18–24 h while E. coli was grown at 37 °C for 24 h. After incubation, the suspension was adjusted to a concentration of 6.7 × 10^5 cells/mL using a hemacytometer. The spore suspension of M. plumbeus was prepared at a concentration of 6.7 × 10^5 conidia/mL using YM medium. The determination of MIC was performed in a 96-well microtiter plate. The compounds dissolved in methanol at a concentration of 4.5 mg/mL (20 μL) were transferred to the first row of the plate. Standard antibiotics including ciprofloxacin (bacteria) and nystatin (yeast and fungus), and methanol were used as positive and negative controls, respectively. Inoculum suspension (280 μL) was added to the first row containing compounds and 150 μL were added to the rest. The solutions were then serially 2-fold diluted to 8 concentrations ranging from 2.34–300 μg/mL. Plates were incubated at 30 °C on a microplate-vibrating shaker for 24 h for bacteria and 48 h for yeast and filamentous fungus. […]
(§11) The assay was kindly conducted by Wera Collisi, Department of Microbial Drugs, Helmholtz Centre of Infection Research, Germany. The tested cell lines were cultured in EBM -2 (Lonza) sup plemented with 10% fetal bovine serum (Gibco) under 10% CO2 at 37 °C. A 60 µL of serial dilutions from an initial stock (1 mg/mL) of the test compounds in MeOH was added to 120 µL aliquots of a cell suspension (50,000 cells/mL) in 96-well microplates.
(§12) After incubation for five days, 20 µL of MTT in phosphate buffered saline (PBS) were added to give a final concentration of 0.5 mg/mL. The plates were further incubated for two hours. The precipitate

[4] = tested on: Escherichia coli DSM498; test: Antimicrobial activity, broth microdilution MIC; format: cell-based; conditions: 24 h, NA = No activity
Experimental: as §1, §7, §8, §9, §10, §11, §12

[5] = tested on: Candida tenuis MUCL29892; test: Antimicrobial activity, broth microdilution MIC; format: cell-based; conditions: Candida tenuis MUCL 29892; 48 h; NA = No activity
Experimental: as §1, §7, §8, §9, §10, §11, §12

[6] = tested on: Mucor plumbeus MUCL49355; test: Antimicrobial activity, broth microdilution MIC; format: cell-based; conditions: Mucor plumbeus MUCL 49355; 48 h; NA = No activity
Experimental: as §1, §7, §8, §9, §10, §11, §12

[7] = tested on: Pseudomonas aeruginosa PA14; test: Anti-biofilm activity, microtiter dish biofilm formation assay; format: cell-based; conditions: lowest concentration preventing biofilm formation by at least 50%, 24 h, NA = No activity
Experimental: as §4, §5
as §3, with “The determination of the ability of isolated compounds to prevent biofilm formation of S. aureus DSM1104 (ATCC25923) and P. aeruginosa PA148 was performed using the microtiter dish biofilm formation assay described by O’Toole9 with minor modification provided in our recent publications 1, 6, 10–14. The biofilm forming strains were enriched overnight in CASO medium with and without 4% glucose for S. aureus and P. aeruginosa , respectively. After” for “After”
as §6

[8] = design: method as in PMID 2143181; conditions: cited from earlier work
[9] = tested on: Caenorhabditis elegans; test: Nematicidal activity microwell plate assay; format: cell-based; conditions: 18 h, tested 100, 50, 20 and 10 μg/mL, NA = No activity
Experimental: as §1, §2
Nematicidal activity assay
The nematicidal activity of the new compounds against C. elegans was performed by a microwell plate assay reported by Stadler et al.5 with slightly modification. The modified protocol was reported by Helaly et al.6 The studied compounds were dissolved with methanol to a concentration of […] and subsequently diluted 1:100 with sterile distilled water. […] Finally, the nematodes were counted using a Malassez counting chamber and further adjusted to obtain a concentration of 500 nematodes/mL with sterile distilled water. […] The plate was incubated at 20 °C in the dark and nematicidal activity was recorded after 18 h of incubation. The nematodes were counted under a stereo microscope. […]

CCCC[C@H](C)[C@@H]1CC(=O)N[C@@H](Cc2ccccc2)C(=O)N[C@@H](C)C(=O)N[C@H](CC(C)C)C(=O)O1 [Beauverolide I (5), beauverolide I]
IC50 at 5 days ([1]; human): 20 µg/mL (≈ 41 µM)

CCCC[C@H](C)[C@@H]1CC(=O)N[C@@H](Cc2ccc(O)cc2)C(=O)N[C@@H](C)C(=O)N[C@H](CC(C)C)C(=O)O1 [Beauverolide N (4), beauverolide N]
IC50 at 5 days ([1]; human, KB3.1 cells (HeLa, cervix carcinoma cell line), HeLa cell line KB3.1, MTT, five days, NA = No activity, a = Proliferation inhibition, no altered or dead cells, read-out: Cytotoxicity (IC50) KB3.1): 16 µg/mL (≈ 31.8 µM)
Anti-biofilm activity (MIC) SA [2]: 250 µg/mL

O=C(O)c1cn(C2CC2)c2cc(N3CCNCC3)c(F)cc2c1=O [Ciprofloxacin, ciprofloxacin, reference compound]
MIC ([3]; read-out: Antimicrobial activity (MIC) BS): 0.52 µg/mL (≈ 1.57 µM)
MIC ([4]; read-out: Antimicrobial activity (MIC) EC): 0.52 µg/mL (≈ 1.57 µM)

C/C(=C\c1csc(C)n1)[C@@H]1C[C@@H]2O[C@@H]2CCC[C@H](C)[C@H](O)[C@@H](C)C(=O)C(C)(C)[C@@H](O)CC(=O)O1 [Epothilone A, epothilone A]
IC50 at 5 days ([1]; mouse, Murine fibroblast cell line L929, five days, NA = No activity): 0.0038 µg/mL (≈ 0.0077 µM)

C/C(=C\c1csc(C)n1)[C@@H]1C[C@@H]2O[C@]2(C)CCC[C@H](C)[C@H](O)[C@@H](C)C(=O)C(C)(C)[C@@H](O)CC(=O)O1 [Epothilone B, epothilone B, reference compound]
IC50 at 5 days ([1]; human, HeLa cell line KB3.1, MTT, five days, NA = No activity, a = Proliferation inhibition, no altered or dead cells, read-out: Cytotoxicity (IC50) KB3.1): 0.00022 µg/mL (≈ 0.000433 µM)

CC=CC=CC1Cc2cc(OC3OC(CO)C(OC)C(O)C3O)cc(O)c2O1 (centres unmarked) [Glucoasperfuran (3), glycoasperfuran]
Antimicrobial activity (MIC) BS [3]: devoid of activity
Antimicrobial activity (MIC) CT [5]: devoid of activity
Antimicrobial activity (MIC) EC [4]: devoid of activity
Antimicrobial activity (MIC) MP [6]: devoid of activity

C[C@@H]1[C@H](O)[C@@H](C)/C=C/C=C/CC/C=C/C=C/C=C/C=C/C(O[C@H]2O[C@H](C)[C@@H](O)[C@H](N)[C@@H]2O)CC2O[C@](O)(CC(O)C(O)CCC(O)CC(O)CC(O)CC(=O)O[C@H]1C)CC(O)C2C(=O)O (some centres unmarked) [Nystatin, nystatin, reference compound]
Antimicrobial activity (MIC) CT [5]: 0.52 µg/mL
Antimicrobial activity (MIC) MP [6]: 8.33 µg/mL

CN(C)[C@@H]1C(O)=C(C(N)=O)C(=O)[C@@]2(O)C(O)=C3C(=O)c4c(O)cccc4[C@@](C)(O)[C@H]3C[C@@H]12 [Tetracycline, tetracycline, reference compound]
Anti-biofilm activity (MIC) PA [7]: 1.9 µg/mL
Anti-biofilm activity (MIC) SA [2]: 1.9 µg/mL

C/C=C/C=C/[C@H]1Cc2cc(O)cc(O)c2O1 [asperfuran]
Antifungal activity [8]: moderately antifungal

ivermectin [reference compound]
Nematicidal CE [9]: 7.5 µg/mL
